How the values were obtained:
[1] = tested on: serum anti-TAChR antibody; test: Anti-AChR antibody assay by RIPA (Example I); format: in vivo, mouse
Description: Sera was obtained from the mice after each clinical testing. […] The antibody concentration is expressed as μM precipitated ^125I-αBTX.

[2] = tested on: anti-TAChR and anti-peptide IgG subclasses; test: ELISA of anti-TAChR and anti-peptide IgG subclasses (Example III); format: in vivo, mouse; details: IL-4 KO mice, nasal α epitope pool
Protocol: Assay of Anti-TAChR and Anti-peptide IgG Subclasses. The relative concentration of IgG subclasses of anti-TAChR and anti-peptide antibodies in the sera of peptide- and sham-treated mice was measured by ELISA after immunization with TAChR. Pooled sera from three-four mice that had received identical treatments was used. The sera used in this assay was obtained at the end of the observation period (10 weeks after beginning of the anti-TAChR immunization).
Ninety-six well plates (Nunc, Karstrup, Denmark) were washed extensively and incubated as follows: 4 hours with a 10 μg/ml solution of TAChR or of individual peptides Tα150-169, Tα181-200 and Tα360-378 in 0.1 M Na phosphate buffer, pH 9.5 (two wells for each antigen), 1 hr with PBS plus 3% bovine serum albumin (BSA), 2 hours with mouse serum (serial dilutions from 1:100 to 1:40,000 in PBS plus 3% BSA), 1 hr with a dilution 1:1000 in PBS plus 3% BSA of goat antibody specific for the total IgG, or IgGl, or IgG2a, or IgG2b or IgG3 (Mouse Monoclonal Isotyping Kit, Sigma, St. Louis, Mo.), and 30 minutes with a 1:3000 dilution of peroxidase-conjugate rabbit anti-goat IgG (Sigma) in PBS plus 3% BSA. The plates were washed, and developed them for 20-60 minutes with ABTS peroxidase substrate system (Kirkegaard & Perry Laboratories Inc., Gaithersburg, Md.). […] The OD was read at 405 nanometers. […]

[3] = tested on: CD8+ depleted spleen cells; test: Lymphocyte proliferation assay, CD8+ depleted spleen cells of IL-4 KO mice; format: cell-based, mouse; details: IL-4 KO mice immunized with TAChR, 10 μg/ml peptide
Protocol: Lymphocyte Proliferation Assay. Two weeks after the last immunization, spleen cells (Bellone et al., 1991) were obtained from three identically treated IL-4 KO mice. The cells were pooled and depleted them in CD8^+ cells using paramagnetic beads and rat anti-mouse CD8^+ antibody (Pharmingen, San Diego, Calif.). The cells were suspended in RPMI-1640 (Gibco, Grand Island, N.Y.) supplemented with 10% heat inactivated fetal calf serum (Gibco), 50 μM 2-mercaptoethanol, 1 mM L-glutamine, 10 mM Hepes, 1 mM sodium pyruvate, 100 U/ml penicillin and 100 μg/ml streptomycin (×10^6 cells/ml). The cells were seeded in triplicate in 96 flat-bottom well plates (200 μl/well). One of the following antigens or stimulants was added: 10 μg/ml phytohemoagglutinine (PHA) (Sigma); 10 μg/ml TAChR; the pools of overlapping peptides spanning the α, β, γ, or δ subunit sequences (5 μg/ml) of each peptide); and 10 μg/ml of the individual a subunit peptides. Controls were triplicate wells cultivated without any antigen, or with or a 20-residue control peptide synthesized by the same method, unrelated to the TAChR sequence (10 μg). After four days the cells were labeled for 16 hours with ^3H-thymidine (1 μCi per well, specific activity 6.7 Ci/mmol, Dupont, Boston, Mass.), and harvested (Titertek, Skatron, Sterling, Va.). The ^3H-thymidine incorporation was measured by liquid scintillation.

spleen CD4+ T-cells = test: Lymphocyte proliferation assay, spleen CD4+ T-cells (Example IV); format: cell-based, mouse
Protocol: Lymphocyte proliferation assay. Five to seven days after the last TAChR immunization, CD4^+ T-cells (Bellone et al., 1991a) were purified from the pooled spleens of three to four mice that had received identical treatments. Irradiated (3000 rad) spleen cells from non-immunized mice were diluted as needed in RPMI-1640 (Gibco, Grand Island, N.Y.) supplemented with 10% heat inactivated fetal calf serum (Gibco), 50 μM 2-mercapto-ethanol, 1 mM L-glutamine, 10 mM HEPES, 1 mM sodium pyruvate, 100 U/ml penicillin and 100 μg/ml streptomycin (culture medium) and used as APC. The spleen CD4^+ T-cells (1×10^6/ml in culture medium, 100×1/well) were seeded in triplicate in 96 flat-bottom well plates containing 100×1 of 5×10^6/ml APC. One of the following Ag was added: 10 μg/ml PHA (Sigma); 5 or 10 μg/ml TAChR; 5 or 10 μg/ml of the individual epitope peptides. The concentrations of TAChR and epitope peptides are in the saturating range of the dose dependence curve (Bellone et al., 1991a), and yielded consistent results. Controls were triplicate wells containing CD4^+ cells and APC without any Ag, or with the control peptide (10 μg/ml). After 4 days the cells were labeled for 16 hours with ^3H-thymidine (1 μCi per well, specific activity 6.7 Ci/mmol, Dupont, Boston, Mass.) and harvested (Titertek, Skatron, Sterling, Va.). The ^3H-thymidine incorporation was measured by liquid scintillation, and represented the results as stimulation indexes (S.I.: the ratio between the cpm obtained in the presence of a given stimulus, and the average cpm obtained for non-stimulated control cultures).

[4] = tested on: CD8+ depleted spleen cells; test: Cytokine secretion in response to TAChR by CD8+ depleted spleen cells (Example IV); format: cell-based, mouse; details: s.c. 200 μg/injection, 72 hours
Protocol: Cytokine secretion in response to TAChR by spleen CD4^+ cells in vitro. Five to seven days after the last immunization, spleen cells of three identically treated mice were pooled, and depleted them of CD8^+ cells using paramagnetic beads and rat anti-mouse CD8^+ Ab (Pharmingen, San Diego, Calif.), following the manufacturer's instructions. The CD8^+ depleted, CD4^+ enriched cells were cultured with 10 μg/ml TAChR, or without any stimulus. 24 well plates were used, and duplicate cultures prepared. The supernatants were harvested after 72 hours, and the concentrations of IFN-γ, IL-4 and IL-10 determined in duplicate samples by capture ELISA using anti-INF-γ, anti-IL-4, anti-IL-10 Ab, and recombinant INF-γ, IL-4 and IL-10 (Pharmingen) as standards, and following the manufacturer's instructions.

peptide Tα150-169: synthetic peptide corresponding to residues 150-169 of the TAChR α subunit (TYDGTKVSISPESDRPDLST; UniProt P02710 174-193, looked up, fragment)
serum anti-TAChR antibody concentration compared with sham-treated ([1]; as early as 4 weeks after first TAChR immunization): significantly lower concentrations | serum anti-TAChR antibody concentration ([1]; at ten weeks, nasal protocol B, μM precipitated 125I-αBTX): 5.5 ± 1.5 µM | anti-peptide IgG2a [2]: moderate synthesis of IgG2a | recognition of individual peptide by cells from sham-treated mice [3]: recognized strongly | response of CD4+ cells from sham-tolerized mice to the peptide (spleen CD4+ T-cells; TAChR-immunized B6 mice, 5 or 10 μg/ml): responded consistently | response to Tα150-169 of tolerized mice (spleen CD4+ T-cells; s.c. prevention protocol): never responded | TAChR-induced IFN-γ secretion [4]: did not cause increased | TAChR-induced IL-4 secretion [4]: significant increase | TAChR-induced IL-10 secretion [4]: in one of the two cultures tested
